Measured values as given in patent publication US8829033B2, “N-benzylamide substituted derivatives of 2-(acylamido)acetic acid and 2-(acylamido)propionic acids: potent neurological agents” (The University of North Carolina at Chapel Hill, priority 2009, dated 2014).
Like-named read-outs stand apart in the source and are kept apart here.

Tests used:
[1] = tested on: Rat; assay: Maximal electroshock seizure (MES) test, rat (po); type: in vivo
Procedure: (§2) The maximal electroconvulsive shock (MES) test is regarded as a standard screen for anticonvulsant activity in terms of inhibition of seizure spread in generalized tonic-clonic seizures.
(§3) Groups of at least 8 male albino CF No. 1 mice or male albino Sprague-Dawley rats are treated with 10 mL/kg i.p. or 4 mL/kg p.o. of the test compound solution, respectively. The electrical stimulus in the MES test is 50 mA at 60 Hz for mice and 150 mA at 60 Hz for rats, both delivered for 0.2 sec. Abolition of the hind leg tonic extensor component of the seizure is used as the endpoint.

[2] = Neurological toxicity, rotorod test, mice (ip); type: in vivo; settings: male, CF No 1, mouse, in vivo
Procedure: (§1) Tests are conducted in groups of at least 8 mice or rats to determine the intrinsic neurotoxicity (neuromuscular impairment) after administration of the test compound by the route of administration to be used in the pharmacology studies. Neurotoxicity is determined in male CF No 1 mice by the rotarod procedure. Inability of the mouse to maintain its equilibrium in 3 trials during 1 min on this rotating rod (6 rpm) is used as an indication of such impairment. In Sprague-Dawley rats, minimal motor impairment (MMI) is determined by overt evidence of ataxia, abnormal gait, and stance.

[3] = tested on: Mice; assay: Formalin test (mice, ip); type: in vivo; settings: for Formalin Assay Acute (%) / Formalin Assay Inflam. (%): mice, ip
Procedure: Compounds of the present invention were active in treating pain in a formalin test carried out in accordance with standard techniques, as described in S. Hunskaar et al., J. Neurosci. Methods 14: 69-76 (1985). Briefly, 0.5% formalin is injected into the mouse hind paw to elicit a bi-phasic licking response, where the first acute phase is thought to correspond to the direct stimulation of peripheral fibers and the second (inflammatory) phase is caused by the release of inflammatory mediators.
Spinal/supraspinal plasticity of nociception is considered as a molecular basis for neuropathic pain particularly during the second (late) phase of the test (Dubuisson & Dennis, 1977; Coderre et al., 1990; Coderre & Melzack, 1992), during which most clinically used drugs against neuropathic pain are active.

[4] = tested on: Rats; assay: Partial sciatic nerve ligation model (rats, ip); type: in vivo; settings: dose 12 (mg), at 1 h, p < 0.05
[5] = tested on: Mice; settings: Ref 30, 16, 32; cited from earlier work
[6] = tested on: Rat; settings: Ref 16, 32; cited from earlier work
[7] = tested on: Mice; settings: rotorod, Ref 30, 16, 32; cited from earlier work
[8] = tested on: Rat; settings: Ref 16, 32; cited from earlier work; remark: listed apart in the source
[9] = tested on: Mice; assay: Maximal electroshock seizure (MES) test, mice (ip);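 also: male albino CF No. 1 mice dosed ip, MES stimulus 50 mA at 60 Hz lasting 0.2 s, efficacy endpoint is loss of hind leg tonic extension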
Procedure: as §2, §3

[10] = Behavioral toxicity, rat (po); type: in vivo; settings: Sprague-Dawley, in vivo, po, read-out: Rat (po) Tox, TD50
Procedure: as §1

[11] = tested on: Mice
Procedure: as §2, §3

[12] = tested on: Mice; assay: 6 Hz test, mice (ip); type: in vivo
[13] = tested on: Mice; assay: Neurological toxicity, rotorod test, mice (ip); type: in vivo
Procedure: as §1

[14] = tested on: Rat; assay: Behavioral toxicity, rat (po); type: in vivo
Procedure: as §1

[15] = tested on: Rats; assay: Hippocampal kindling test, rats (ip); type: in vivo; settings: rats
Procedure: The kindling model provides a tool to predict a test compound's activity in complex partial seizures.
Male albino Sprague-Dawley rats (n=8) are kindled to a Stage 5 behavioral seizure. They are treated with an appropriate i.p. dose of the test compound after a 1-week, stimulus-free period. The test compound is evaluated for its effect on kindled motor seizures (seizures scores of 4 and 5), limbic behavior seizures (seizure scores between 1 and 3) and after-discharge duration. After 15 min, each rat is stimulated every 30 min for 3-4 h. Following each stimulation, individual seizure scores and after-discharge duration are recorded. The group mean and standard error of the mean (SEM) are calculated for each parameter.

[16] = Rattus norvegicus, read-out: Rat (po) MES, ED50
[17] = Table b501, orally, behavioral toxicity
[18] = Table b501, ip, protective index (TD50/ED50)

COC[C@@H](NC(C)=O)C(=O)NCc1ccc(OCc2cccc(F)c2)cc1 [(R)-3, (R)-2-Acetamido-N-(4-(3-fluorobenzyloxy)benzyl)-3-methoxypropanamide]
Rat (po) PI ([1]; PI=TD50/ED50): >36
TD50 ([2]; read-out: Mice (ip) Tox, TD50): 26 mg/kg
Formalin Assay Acute (%) ([3]; dose 15 (mg)): 35%
Formalin Assay Inflam. (%) ([3]; dose 15 (mg)): 44%
Partial Sciatic Nerve Ligation Assay: attenuation of mechanical allodynia [4]: 11.2 fold attentaution of mechanical
Mice (ip) Mes, ED50 [5]: 4.5 [0.5] mg/kg
Rat (po) MES, ED50 [6]: 3.9 [2.0] mg/kg
Mice (ip) Tox, TD50 [7]: 27 [0.25] mg/kg
Rat (po) Tox, TD50 [8]: >500 mg/kg
Mice (ip) MES, ED50 ([9]; ip): 13 [0.25]
Mice (ip) PI ([9]; ip, PI=TD50/ED50): ~2

COC[C@@H](NC(C)=O)C(=O)NCc1ccc(OC(F)(F)F)cc1 [(R)-4]
ED50 [1, 16]: > 30 mg/kg
TD50 [10]: > 30 mg/kg
Formalin Assay Acute (%) ([3]; dose 4.0 (mg)): 52%
Formalin Assay Inflam. (%) ([3]; dose 4.0 (mg)): 50%
Mice (ip) PI ([9]; ip, PI=TD50/ED50): ~9.3

COCCCc1ccc(CNC(=O)[C@@H](COC)NC(C)=O)cc1 [(R)-7]
ED50 [1, 16]: 16 mg/kg
TD50 ([2]; read-out: Mice (ip) Tox, TD50): 62 mg/kg
TD50 [10]: > 500 mg/kg

COCc1ccc(CNC(=O)[C@@H](COC)NC(C)=O)cc1 [(R)-8]
ED50 [1, 16]: 45 mg/kg
TD50 ([2]; read-out: Mice (ip) Tox, TD50): 180 mg/kg
TD50 [10]: > 500 mg/kg

COC[C@@H](NC(C)=O)C(=O)NCc1ccc(C2(C(F)(F)F)N=N2)cc1 [(R)-9, (R)-2-Acetamido-3-methoxy-N-(4-(3-(trifluoromethyl)-3H-diazirin-3-yl)benzyl)propanamide]
ED50 ([1]; read-out: Rat (po) MES, ED50): > 30 mg/kg
TD50 ([2]; read-out: Mice (ip) Tox, TD50): 68 mg/kg
TD50 [10]: > 30 mg/kg
melting point: 195 °C (dec.)
Mice (ip) MES, ED50 [11]: 15.05 [0.25] (13.93- 16.39)
Mice (ip) PI ([9]; ip, PI=TD50/ED50): 4.4

COC[C@@H](NC(C)=O)C(=O)NCc1ccc(OCc2cccc(F)c2)cc1 [(R)-10, (R)-2-Acetamido-N-(4-(3-fluorobenzyloxy)benzyl)-3-methoxypropanamide]
Rat (po) MES, ED50 [1]: 4.9 [1]
Rat (po) PI ([1]; PI=TD50/ED50): >57
ED50 ([1]; Rattus norvegicus, Table b500, orally, read-out: Rat (po) MES, ED50): 14 mg/kg
ED50 ([1]; Rattus norvegicus, Table b502, orally, read-out: Rat (po) MES, ED50): 14 mg/kg
ED50 ([1]; Rattus norvegicus, read-out: Rat (po) MES, ED50, Table b501, orally): 1.4 mg/kg
Rat (po) PI ([1]; Table b500, protective index (TD50/ED50)): >36
Rat (po) PI ([1]; Table b501, protective index (TD50/ED50)): >36
Rat (po) PI ([1]; Table b502, protective index (TD50/ED50)): >36
Mice (ip) 6 Hz, ED50 ([12]; Table b500, intraperitoneally): ~10 [0.25] mg/kg
Mice (ip) 6 Hz, ED50 ([12]; Table b501, intraperitoneally): ~10 [0.25] mg/kg
Mice (ip) 6 Hz, ED50 ([12]; Table b502, intraperitoneally): ~10 [0.25] mg/kg
Mice (ip) Tox, TD50 ([13]; Table b500, rotorod test): 26 [0.5] mg/kg
Mice (ip) Tox, TD50 ([13]; Table b502, rotorod test): 26 [0.5] mg/kg
Mice (ip) Tox, Td50 ([13]; rotorod test): 26 [0.5] mg/kg
Rat (po) Tox, TD50 ([14]; Table b500, orally, behavioral toxicity): >500 [0.5] mg/kg
Rat (po) Tox, TD50 [14, 17]: >500 [0.5] mg/kg
Rat (po) Tox, TD50 ([14]; Table b502, orally, behavioral toxicity): >500 [0.5] mg/kg
Rat (po) Tox, TD50 ([14]; po): > 280 mg/kg
Formalin Test (mice, ip) Inflammatory (%) ([3]; duration of licking as percent of control, late phase, dose 15 mg/kg): 44 (10) %
Formalin Assay Acute (%) ([3]; dose 25 (mg)): 80%
Formalin Assay Inflam. (%) ([3]; dose 25 (mg)): 70%
Preliminary Hippocampal Kindling Test (Rats) After discharge duration, Drug ([15]; after drug (pre-drug duration in neighbouring column)): 0 s
Preliminary Hippocampal Kindling Test (Rats) Seizure Score, Drug ([15]; after drug (pre-drug score in neighbouring column)): 0
Mice (ip) PI ([9]; Table b500, ip, protective index (TD50/ED50)): 2
Mice (ip) MES, ED50 ([9]; Table b501, intraperitoneally): 13 [0.25] mg/kg
Mice (ip) PI [9, 18]: 2
Mice (ip) MES, ED50 ([9]; Table b502, intraperitoneally): 13 [0.25] mg/kg
Mice (ip) PI ([9]; Table b502, ip, protective index (TD50/ED50)): 2
Mice (ip) PI ([9]; ip, PI=TD50/ED50): ~3.1

COC[C@@H](NC(C)=O)C(=O)NCc1ccc(Oc2cccc(F)c2)cc1 [(R)-12, (R)—N-4′-((3″-Fluoro)phenoxy)benzyl 2-N-Acetamido-3-methoxypropionamide]
ED50 ([12]; Mus musculus, ip, intraperitoneally): ~10 mg/kg
TD50 ([2]; rotorod test, read-out: Mice (ip) Tox, Td50): 23 mg/kg
Rat (po) Tox, TD50 [14, 17]: >10 [0.25-4.0] mg/kg
melting point: 125 to 126 °C
Mice (ip) MES, ED50 ([9]; Table b501, intraperitoneally): 5.5 [0.25] (3.2-6.3) mg/kg
Mice (ip) PI [9, 18]: 4.2

CC(=O)N[C@@H](C)C(=O)NCc1ccccc1 [(S)-4, reference compound]
Mice (ip) Mes, ED50 [5]: 8.0 mg/kg
Mice (ip) Tox, TD50 [7]: 630 mg/kg
